Laboratory results published in patent publication US6710090B2, “Inhibitory or blocking agents of molecular generating and/or inducing functions” (priority 1994, dated 2004).

System: synthesized dimers SEQ ID NO: 1 and SEQ ID NO: 2
Assay: Molecular weight of new synthesized dimers with seven base pair, electrophoresis
Type: biochemical
Conditions: 2 μl dimer solution with 2 μl of Yoshixol, 20% gel electrophoresis
Protocol: DNA or RNA synthesis device (392-25 type, Perkin-Elmer Co.) was used and 7 base alignment (CTTCGGA) and (CTTCGGG) new synthesis dimer (SEQ ID NO: 1) (5′>CTTCGGACTTCGGA<3′) and (SEQ ID NO: 2) (5′>CTTCGGGCTTCGGG<3′) were synthesized. Then, an effect of Yoshixol on a change in molecular weight of the dimer was investigated. This pellet was dissolved on 50 μl of tris EDTA, and OD260 was measurement by 100 times attenuation so that concentration was turned into equality (5 ng/μl) by tris EDTA and distilled water. And, 4 μl of an adjusted synthesis dimer was labeled at 5′-terminal end of the dimer with 4 μl of ATP which was labeled by P32. In addition, after processing the dimer with 1 μl of polynucleokinase (TaKaRa, Tokyo) for 30 minutes by 37° C., the solution was heated at 70° C. for 5 minutes. Afterward, 65 μl of tris EDTA, 1 μl of glycogen and 190 μl of chilled ethanol were added and were mixed. And, it was centrifuged over 10 minute by 16,000 cpm. After taking the supernatant out, the pellet was made dry. Again, it was dissolved by 50 μl of tris EDTA and, 1 μl of the solution with radioactivity was mixed with urea (15 g), acrylamide (5.7 g), bisacrylamide (0.3 g), tris boric acid EDTA (3 ml), 10% ammoniumpersulfate (0.1 ml) and N, N, N, N-tetramethyldiamine (15 μl) to distilled water, so that the volume was made to 30 ml in total. […]

## C=C1CC(C)(C)C=CC1=O [Yoshixol, 4,4-dimethyl-6-methylene-2-cyclohexen-1-one]
  change in molecular weight of the synthesized dimers versus without treatment: did not differ
